Measured values taken from patent US20210198318A1, “Methods and Compositions for Treating Diseases and Conditions Associated with Gonadotropin Releasing Hormone Receptor” (The Board of Regents of the University of Oklahoma, priority 2018, published 2021).
Non-standard residues stand in square brackets, D forms with d. Residues, ends and D or L forms follow the SMILES beside them. dPhe(4-Cl) = N[C@H](Cc1ccc(Cl)cc1)C(=O)O; d2Nal = N[C@H](Cc1ccc2ccccc2c1)C(=O)O; dCit = NC(=O)NCCC[C@@H](N)C(=O)O; d3Pal = N[C@H](Cc1cccnc1)C(=O)O

Tests used:
[1] = biological target: T1, GnRHR (Homo sapiens, UniProt P30968); assay: GnRHR-transfected Chem-1 cell-based calcium flux assay; conditions: for dosage at which the assay responds (relative Ca^2+ induced Fluo-8 NW fluorescence, % of maximal fluorescence): GnRHR-transfected cells, dosage response curve, n=4
T1 construct: host or cells: Chem-1 cells
T1 sequence (P30968 1-328): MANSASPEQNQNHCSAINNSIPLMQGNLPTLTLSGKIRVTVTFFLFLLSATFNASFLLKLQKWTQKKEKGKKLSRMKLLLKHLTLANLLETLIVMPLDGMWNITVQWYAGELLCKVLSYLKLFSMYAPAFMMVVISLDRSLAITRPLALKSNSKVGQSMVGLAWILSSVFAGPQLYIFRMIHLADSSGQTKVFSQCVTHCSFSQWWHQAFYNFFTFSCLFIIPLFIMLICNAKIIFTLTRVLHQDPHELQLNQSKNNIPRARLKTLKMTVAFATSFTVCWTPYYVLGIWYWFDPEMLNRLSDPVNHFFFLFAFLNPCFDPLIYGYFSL
Experimental: Cell-based GnRHR-AAb Activity Assays: Activity of GnRHR AAb in IgG purified from sera of subjects with PCOS and controls were analyzed with a GnRHR-transfected Chem-1 cell-based calcium flux assay (Eurofins Scientific, USA). Briefly, Chem-1 cells were dispensed into 96-well plates and incubated 24 h, after which assay plates were washed sufficiently with Hank's Balanced Salt Solution (HBSS) supplemented with 20 mM HEPES, 2.5 mM Probenecid at pH 7.4 to remove all trace of Media. Component. Serum-derived IgG (0.1 mg/mL) was added in the presence and absence of the non-selective GnRHR blockade. Samples were tested in triplicate. FLUO-8®, AM Ca^2+ dye (Cat No: 21080, AAT Bioquest, Inc., Sunnyvale, Calif.) was prepared by dissolving 1 mg of Fluo-8 NW in […] and applied to the assay plate (Ca^2+ dye at 10 μL/10 mL is sufficient for loading one plate). Excitation wave length was set at 470-495 nm and emission wave length at 515-565 nm for Ca^2+ dyes. Maximal fluorescence signal was obtained by HIDEX Sense reader.
Methods Summary: Infertile PCOS subjects based on Rotterdam criteria and infertile ovulatory controls seen at an academic fertility clinic 2012-2016 were included in the study if they had stored serum prior to beginning treatment. Serum was screened by ELISA for AAbs to GnRHR using a synthetic 28-mer peptide from the ECL2 and ECL 1 of human GnRHR as coating antigen. Optical density (OD) values were read at 405 nm at 60 minutes. Activity of GnRHR AAb in sera and in IgG purified from sera of 4 subjects with PCOS and 4 controls was analyzed with a GnRHR-transfected Chem-1 cell-based calcium flux assay. AAb-specific effect was tested by GnRHR blockade. Group data are presented as mean±SD or percent. Groups were compared using Student t or Pearson chi-squared tests. An ROC curve was used to assess OD as a diagnostic test for PCOS.

[2] = tested on: Abs present in the sera; assay: Mimotope PIN ELISA with sequential GnRHR-ECL2 synthetic peptides and PCOS serum; type: binding, human; conditions: sera 1:200; 8-mer pins offset by two amino acids
Experimental: The peaks represent sites of increased binding by Abs present in the sera. The amino acid sequence for each pin is shown at the bottom. Representative PCOS with 2 dominant peaks. Each color bar represents the time of O.D. reading after addition of chromagen (30, 60, and 90 min).
A Mimotope PIN ELISA assay was performed on 11 PCOS subjects and 5 control subjects using sequential GnRHR-ECL2 synthetic peptides, each 8 amino acid residues in length, and each one different from the preceding peptide by addition of the next two C-terminal residues and removal of the last 2 N-terminal residues (see Table 1). The specific peptides were biochemically bonded to the tip of the pin that is attached to the 96 well plate cover in such a fashion that the peptides were immersed in the buffer/sera (1:200) mixture in the well. After incubation, the pins and wells were washed thoroughly, and the well mixture was then replaced by the anti-human-2nd AB (1:10,000) and incubated and washed again; the colorimetric agent was then added. The wells were sequentially counted at 10 min intervals, and values were compared for analysis of O.D. for each pin. The values and pin sequences are shown with time of reading in color code.

Compound: CC(=O)N[C@H](Cc1ccc2ccccc2c1)C(=O)N[C@H](Cc1ccc(Cl)cc1)C(=O)N[C@H](Cc1cccnc1)C(=O)N[C@@H](CO)C(=O)N[C@@H](Cc1ccc(O)cc1)C(=O)N[C@H](CCCNC(N)=O)C(=O)N[C@@H](CC(C)C)C(=O)N[C@@H](CCCNC(=N)N)C(=O)N1CCC[C@H]1C(=O)N[C@H](C)C(N)=O [cetrorelix] (Ac-[d2Nal][dPhe(4-Cl)][d3Pal]SY[dCit]LRP[dA]-NH2)
- effect on GnRHR activity (relative fluorescence, % of maximum fluorescence) of PCOS subjects ([1]; cetrorelix 10^−5M, 2-hour exposure, samples from PCOS subjects): suppressed the relative fluorescence expressed as % of maximum fluorescence to baseline
- effect on GnRHR activity (relative fluorescence, % of maximum fluorescence) of control subjects ([1]; cetrorelix 10^−5M, 2-hour exposure, samples from control subjects): not significantly changed

Compound: CCNC(=O)[C@@H]1CCCN1C(=O)[C@H](CCCNC(=N)N)NC(=O)[C@H](CC(C)C)NC(=O)[C@@H](CC(C)C)NC(=O)[C@H](Cc1ccc(O)cc1)NC(=O)[C@H](CO)NC(=O)[C@H](Cc1c[nH]c2ccccc12)NC(=O)[C@H](Cc1c[nH]cn1)NC(=O)[C@@H]1CCC(=O)N1 [leuprolide]
- total GnRHR activity of leuprolide in the presence of IgG purified from PCOS subjects versus buffer+leuprolide ([1]; GnRHR transfected cells, n=4, p<0.01): increased the total activity at least in an additive fashion
- dosage at which the assay responds (relative Ca^2+ induced Fluo-8 NW fluorescence, % of maximal fluorescence) [1]: 10^−8 M

Compound: FSQCVTHC (listed as Homo sapiens) [SEQ ID NO:8]
- site of increased binding by Abs in PCOS sera (minipin ELISA peak) [2]: Overlapping Peak 1

Compound: VTHCSFSQ (listed as Homo sapiens) [SEQ ID NO:6]
- site of increased binding by Abs in PCOS sera (minipin ELISA peak) [2]: Overlapping Peak 2

Compound: human Leutenizing Hormone Releasing Hormone [hLHRH]
- dosage at which the assay responds (relative Ca^2+ induced Fluo-8 NW fluorescence, % of maximal fluorescence) [1]: 10^−9 M
